Experimental data reported in patent publication EP0663826B1, “AMINO ACIDS CONTAINING PARENTERAL FORMULATIONS FOR THE TREATMENT OF HYPOTENSION AND RELATED PATHOLOGIES” (BOARD OF REGENTS THE UNIVERSITY OF TEXAS SYSTEM, priority 1991, dated 1993).

Columns and labels:
[1] = test system: hypotension associated with the administration of TNF in the dog; assay: TNF-induced hypotension in the dog; type: in vivo, dogs
Experimental: Recombinant human TNF, specific activity 2 x 10^7 units/mg, was from the Dainippon Chemical Corporation, Tokyo, Japan. TNF was administered at a dose of 10 µg//kg in a volume of 10 ml of phosphate buffered saline containing 17 mg/ml of dog albumin. […] Arginine was obtained from Sigma Chemical Company, St. Louis, Mo.
Four conditioned mongrel dogs, 2 males and 2 females, weighing 28 to 30 kg, were studied. Care of the animals were in accordance with the recommendations of the American Association for Accreditation of Laboratory Animals [DHEW(DHHS) publication no. (NIH) 78-23, revised, 1978]. On the day of the experiment, the dogs were fasted overnight. They were anesthetized with phenobarbital (25 mg/kg). The animals were then intubated orally with a #10 fr. endotracheal tube and ventilated with a Harvard pump ventilator at a rate of 14 breaths per minute and a tidal volume of 15 ml/kg. An arterial line was percutaneously placed in the femoral artery on the day of the experiment.
Mean (electronic) and phasic systemic arterial pressures (SAP) were continuously recorded on a Hewlett-Packard recording system (model 7758B) using strain gauge manometers (Hewlett-Packard model 1290A) which were connected to the arterial line. Heart rate (HR) was determined from an EKG tracing and continuously recorded on the Hewlett-Packard recording system. Oxyhemoglobin saturation (SaO2) was obtained using a pulse oximeter (BIOX 111, Boulder, CO). Continuous time-series records of SAP, HR, and SaO2 were obtained using a Lab Master analog-to-digital convertor (16 channel, 12 bit, 30 kHz; Scientific Solutions, Inc.) sampling at 55 Hz and storing the 6 sec averages on a magnetic disk.

[2] = test system: endotoxin-induced shock in dogs; assay: Endotoxin-induced hypotension in dogs (with nitroglycerin and control dogs); type: in vivo
Experimental: Animals: Studies were carried out on 12 conditioned mongrel dogs (9 males and 3 females) weighing 22-32 kg (avg=25.3 kg). Animal care was in accordance with the recommendations of the American Association for Accreditation of Laboratory Animal Care, and met all standards prescribed by the Guide for the Care and Use of Laboratory Animals (Guide for the Care and Use of Laboratory Animals (1978) Dept. of Health, Education and Welfare, Washington, D.C. (Publ. No. 78-23). Animal protocols were approved by The University of Texas Animal Welfare committee. The dogs were fasted overnight prior to the day of experimentation. They were anesthetized with sodium pentobarbital (25 mg/kg i.v.). Dogs were then endotracheally intubated and ventilated with a piston-driven respirator (Harvard instruments) using room air at a tidal volume of 15 ml/kg and at a rate of 12 to 14 breaths per minute, adjusted to achieve a normal arterial pH and pCO2 (Instrumentation Laboratories lL1302 pH/Blood Gas Analyzer). Catheters were placed percutaneously into the femoral and pulmonary arteries; In the latter, a flow-directed thermal-dilation catheter was used (Abbott Critical Care Systems).
Physiologic measurements: Mean SAP and heart rate were continuously monitored (Parametron 7048 Monitoring System, Roche) and stored on a magnetic disk using an analog-to-digital converter (Scientific Solutions, Inc.). Cardiac output (CO) was determined as the mean of six measurements by thermal-dilution. Systemic vascular resistance was calculated as (SAP X80)/CO and expressed as dynes-sec/cm^5 (kg/s·cm^4).
Protocol: After the blood pressure and heart rate stabilized, endotoxin (40 µg/kg, in 10 ml of phosphate-buffered saline (PBS), pH 7.4) was infused i.v. over 2 minutes. This dose of endotoxin typically induces severe and often lethal cardiovascular collapse in the dog. Blood pressure was monitored, and when either SAP fell below 60 mm Hg or a stable nadir in systemic arterial pressure (SAP) was maintained for 10 minutes, L-NMA was administered (20 mg/kg in 5 ml of PBS i.v. over 1 min.). In most experiments, L-arginine (400 mg/kg in 20 ml PBS) was administered ten minutes later by i.v. infusion over 2 minutes. In control experiments, dogs without prior exposure to endotoxin received L-NMA alone. To simulate the hypotension observed in dogs receiving endotoxin, one group of dogs received a continuous i.v. infusion of nitroglycerin (2 mg/ml) at a rate adjusted to maintain the SAP at 60-70 mm Hg. Nitroglycerin-treated dogs then received L-NMA (20 mg/kg) and 20 minutes later L-arginine was administered ([…]).
Statistics: Statistical significance was evaluated using Student's test and either a one-tailed or two-tailed analysis as appropriate for comparisons.

[3] = test system: Actinomycin D-Treated L929 Cells; assay: Cytolytic activity of rh-TNF against L929 cells; type: cell-based, murine; conditions: for TNF Activity: without NMMA 594.5
Experimental: TNF bioactivity was measured by the cytotoxicity towards murine L929 cells, in vitro. […]

[4] = test system: ^51Cr-labeled Raji Target cells; assay: IL-2 mediated lymphokine activated killer cell activity in vitro; type: cell-based, human

For CNC(=N)NCCC[C@H](N)C(=O)O [NMMA, N^ω-methyl-L-arginine], the “duration of NMMA-induced bradycardia” value ([1]; NMMA alone to untreated dogs (n=3)) was 31 min, the blood pressure increase ([1]; NMMA alone to untreated dogs (n=3), within 2 minutes after infusion) was 12 mm Hg and the blood pressure increase ([1]; NMMA in dogs infused with nitroglycerin 28 µg/kg/minute IV) was 14 mm. For the same molecule, the “increase in blood pressure after administration of NMMA” value ([1]; dog with severe TNF hypotension, 4.4 mg NMMA/kg, Figure 4a) was 80 mm Hg, the “time to pressor effect of NMMA” value ([1]; dogs made hypotensive with TNF) was no more than 2 min and the “time SAP maintained greater than 100 mm Hg by second dose of L-NMA” value ([2]; Figure 6 dog, endotoxin) was 2 h. The “time blood pressure was maintained by the first dose of L-NMA” value ([2]; Figure 6 dog, endotoxin) was 48 min, the “increase in SAP” value ([2]; Figure 6 dog, endotoxin hypotension 47 mm Hg, L-NMA 20 mg/kg, within 10 min) was 73 mm Hg and the “Cardiac Output” value ([2]; Study 1: Endotoxin-treated dogs (n=4), means ± S.E., same sequence, baseline 2.99 ± 0.32) was 2.03 ± 0.32 L/min. The “Heart Rate” value ([2]; Study 1: Endotoxin-treated dogs (n=4), means ± S.E., same sequence, baseline 119.5 ± 6.0) was 123.3 ± 4.8 beats/min, the “Systemic Vascular Resistance” value ([2]; Study 1: Endotoxin-treated dogs (n=4), means ± S.E., same sequence, baseline 3565 ± 454) was 4462 ± 552 dynes-sec/cm^5 and the “Systemic Arterial Pressure” value ([2]; Study 1: Endotoxin-treated dogs (n=4), means ± S.E., sequence endotoxin 40 µg/kg, L-NMA 20 mg/kg, 10 min later L-arginine 400 mg/kg (measured 2 min later), baseline 128.3 ± 9.4) was 107.3 ± 9.6 mmHg. For the same molecule, the “Systemic Vascular Resistance” value ([2]; Study 1: Endotoxin-treated dogs (n=4), means ± S.E., value in brackets) was 4.462 ± 0.552 Kg/s·cm^4, the “Cardiac Output” value ([2]; Study 2: Nitroglycerin-treated dogs (n=3), means ± S.E., baseline 3.14 ± 0.21) was 3.85 ± 0.80 L/min and the “Heart Rate” value ([2]; Study 2: Nitroglycerin-treated dogs (n=3), means ± S.E., baseline 143.7 ± 12.1) was 191.7 ± 35.0 beats/min. For the same molecule, the “Systemic Vascular Resistance” value ([2]; Study 2: Nitroglycerin-treated dogs (n=3), means ± S.E., baseline 3294 ± 74) was 1858 ± 399 dynes-sec/cm^5, the “Systemic Arterial Pressure” value ([2]; Study 2: Nitroglycerin-treated dogs (n=3), means ± S.E., continuous nitroglycerin (2 mg/ml) titrated to SAP 65 mm Hg, then L-NMA 20 mg/kg, then L-arginine, baseline 129.3 ± 10.2) was 81.8 ± 3.5 mmHg and the “Systemic Vascular Resistance” value ([2]; Study 2: Nitroglycerin-treated dogs (n=3), value in brackets) was 1.858 ± 0.399 Kg/s·cm^4. The “increase in SAP” value ([2]; control dogs not treated with endotoxin, L-NMA alone) was 24.8 ± 2.7 mm Hg, the “Systemic Arterial Pressure” value ([2]; control dogs without endotoxin (n=4), means±S.E., L-NMA, baseline 129.0±10.9) was 153.8±11.4 mm Hg and the “Cardiac Output” value ([2]; control dogs without endotoxin (n=4), means±S.E., baseline 3.54±0.68) was 2.12 ± 0.26 L/min. The “Heart Rate” value ([2]; control dogs without endotoxin (n=4), means±S.E., baseline 121±17.9) was 82.5±6.1 beats/min, the “Systemic Vascular Resistance” value ([2]; control dogs without endotoxin (n=4), means±S.E., baseline 3115±347) was 5967±523 dynes-sec/cm^5 and the “Systemic Vascular Resistance” value ([2]; control dogs without endotoxin (n=4), value in brackets) was 5.967±0.523 Kg/cm^4·s. For the same molecule, the “change in blood pressure” value ([2]; dogs with blood pressure reduced to 65 mm Hg by continuous i.v. nitroglycerin, L-NMA 20mg/kg) was 17.1±5.0 mm Hg, the “duration normal blood pressure maintained” value ([2]; endotoxin-treated dog, additional dose of L-NMA (20 mg/kg) when blood pressure began to decrease) was “at least 2 hours” and the “duration normal blood pressure restored” value ([2]; endotoxin-treated dog, single i.v. dose of L-NMA (20 mg/kg)) was 30 to 60 min. For the same molecule, the “HR and CO” value ([2]; endotoxin-treated dogs, L-NMA 20 mg/kg) was “unchanged”, the “time to reversal of hypotension by L-NMA” value ([2]; endotoxin-treated dogs, L-NMA 20 mg/kg iv) was no more than 1.5 min and the “increase in SAP” value ([2]; endotoxin-treated dogs, L-NMA 20 mg/kg, p<0.01) was 47.8 ± 6.8 mm Hg. For the same molecule, the “decrease in cardiac output (Δ)” value ([2]; two of the four control dogs, L-NMA) was no less than 1.5 L/min, the “TNF Activity” value ([3]; [NMMA] 0.125 mM) was 536.9 Units/ml and the “TNF Activity” value ([3]; [NMMA] 0.250 mM) was 538.2 Units/ml. The “TNF Activity” value ([3]; [NMMA] 0.500 mM) was 562.4 Units/ml, the “TNF Activity” value ([3]; [NMMA] 1.0 mM) was 415.7 Units/ml and the “effect on the cytolytic effect of TNF towards tumor cells in vitro” value ([3]; murine L929 cells) was “did not alter”. The “% Target Cell Lysis” value ([4]; [NMMA] 2.0 mM, same effector cells, without NMMA 66.1 ± 9.5) was 75.1 ± 4.1% and the “effect on the proliferation phase or the lytic phase of human LAK cells exposed to IL-2” value ([4]; in vitro) was “did not alter”.
